Results published in patent US7425218B2, “Nitric oxide-releasing medical devices” (The United States of America as represented by the …, priority 1992, dated 2008).
Where a name gives a salt, the structure may show the parent alone.

Assay: decomposition and nitric oxide production at pH 7 and 25° C.
Type: physicochemical
Details: for half-life of decomposition: for the carbethoxy compound based on loss of the 252-nm chromophore in the UV spectrum
Description: The analysis of NO adducts, i.e., polymers containing the nitric oxide-releasing N2O2^− functional group, was done on a nitric oxide analyzer and was patterned after the procedure of Maragos et al., J. Med. Chem., 34, 3242-3247 (1991). A reactor vessel fitted with a septum was charged with a small aliquot of the polymer to be studied and the system was purged with helium for several minutes to remove traces of oxygen. […]
To a solution of 510 mg (1.97 mmol) of 1-(N-acetyl-L-methionyl)piperazine in 1 ml of methanol was added 428 μl (1.97 mmol) of 25% sodium methoxide in methanol. The system was degassed and charged with 40 psi of nitric oxide. After exposure of the solution to NO for 120 h, the pressure was released and the solid product was collected by filtration, washed with ether, and dried to give 27 mg of 1-[4-(N-acetyl-L-methionyl)piperazin-l-yl]-1-oxo-2-hydroxydiazene, sodium salt, as a white solid: UV λmax (ε) 252 nm (12.0 mM^−1 cm^−1).
A solution of 20 g (0.126 mol) of ethyl 1-piperazinecarboxylate in 60 ml of methanol was placed in a Parr bottle. The solution was treated with 27.4 ml (0.126 mol) of 25% sodium methoxide in methanol. The system was evacuated, charged with 40 psi of nitric oxide and kept at 25° C. for 48 h. The white crystalline product was collected by filtration and washed with cold methanol as well as with copious amounts of ether. The product was dried under vacuum to give a 14.5 g (48%) yield of 1-(4-carbethoxypiperazin-1-yl)-1-oxo-2-hydroxydiazene, sodium salt: mp 184-5° C.; UV (0.01 M NaOH) λmax (ε) 252 nm (10.4 mM^−1 cm^−1); NMR (D2O) δ 1.25 (t, 3 H), 3.11 (m, 2 H), 3.68 (m, 2 H), 4.15 (q, 2 H). Anal Calcd. for C6H13N4O4Na: C, 35.00%; H, 5.42%; N, 23.33%; Na, 9.58%. Found: C, 34.87%; H, 5.53%; N, 23.26%; Na, 9.69%. The half-life of this compound at pH 7 and 25° C. was 5 min. This measurement was based on the loss of the 252-nm chromophore in the ultraviolet spectrum.

## CCOC(=O)N1CCN([N+]([O-])=N[O-])CC1.[Na+] [1-(4-carbethoxypiperazin-1-yl)-1-oxo-2-hydroxydiazene, sodium salt]
  half-life of decomposition: 5 min

## CSCC[C@H](NC(C)=O)C(=O)N1CCN([N+]([O-])=NO)CC1 [1-[4-(N-acetyl-L-methionyl)piperazin-l-yl]-1-oxo-2-hydroxydiazene, sodium salt]
  moles of NO produced per mole of test agent: 1.72 moles of NO per mole of test agent
  half-life of decomposition: 6.9 min
